The subject of one experiment is HSCs. The conditions noted are these: single dose; Harrison and Lerner, 1991; cited from earlier work.
In another experiment the test system is SP cells in bone marrow. As to the kind of experiment: Side Population (SP) cells in bone marrow after 5-FU. Format: in vivo, mice. The conditions noted are these: different times after 5-FU; FIG. 13. Here is the method: At different times after 5-FU, bone marrow was harvested, nucleated cells counted and incubated in Hoechst dye for subsequent analysis on efficient (lower gate) and poor (higher gate) dye effluxing cells in the SP tail. While the percent of SP cells appeared to increase from day 1 to day 4, the cell yield continued to decrease and thus the actual number of SP cells per hind limb remained low.
(§1) Mice: C57BL/6J male mice (with Ly 5.2 marker) obtained from Jackson Laboratories were used for most of the experiments proposed. Mice were maintained in a specific pathogen-free microisolator environment. […] The cellularity of bone marrow and thymus was measured by counting total live cells (using trypan blue) and total WBCs (using crystal violet in 3% acetic acid) on a hemocytometer. […] Briefly, C57BL/6J mice were injected i.v. via the retro-orbital sinus under isoflurane anesthesia with two doses (0.8 mg/mouse) of Hoechst dye (Sigma) at 10 and 5 min before bone marrow harvesting, a period determined to be insufficient for active dye exclusion in vitro. […] The dual emission wavelength of Hoechst fluorescence in bone marrow and thymus was assessed on a logarithmic scale using flow cytometry with exclusion of propidium iodide positive cells. […] The fluorescent intensity for staining was measured using flow cytometry. […]

The next experiment deals with bone marrow. As to the kind of experiment: Hoechst dye perfusion gradient in bone marrow after 5-FU. Format: in vivo, mice. To be noted: 1 to 6 days after 5-FU; Hoechst dye i.v. 0.8 mg at 5 and 10 min; FIG. 12. Here is the method:
At different times after 5-FU, Hoechst dye was injected i.v. (0.8 mg at 5 and 10 min) and the bone marrow analyzed for intensity of Hoechst uptake. The plotted graph gives the red fluorescence intensity for cells at the lower 1% level to show how the Hoechst gradient is shortened at 1 to 6 days after 5-FU and provides evidence for improved oxygenation of the cells that remain after treatment.
as §1

In experiment [1] the test system is Cobblestone Area Forming Cell (CAFC) subsets in bone marrow. As to the kind of experiment: Cobblestone Area Forming Cell (CAFC) content of bone marrow after in vivo treatment. More on the design: species or system mice. Here is the method: FIG. 8 is a depiction of CAFC content per hind limb expressed as percent of untreated (saline injected) control following 4×30 mg/kg tirapazamine (TPZ) 2×10 mg/kg Busulfex (BX) or 4 Gy gamma-irradiation. Data represents the mean of bone marrow cell samples pooled from 3-4 individual mice with 95% confidence limits.
5-FU was administered i.p. to B6 recipients at a single dose of 150 mg/kg. At 2 days, the femoral and tibial bone marrow was harvested, pooled from mice and plated for estimate of CAFC content per hind limb. Error bars represent 95% confidence intervals.
Mice: C57BL/6J male mice (with Ly 5.2 marker) obtained from Jackson Laboratories were used for most of the experiments proposed. Mice were maintained in a specific pathogen-free microisolator environment. For some in vivo repopulation assays, B6.5JL-Ptprc^a Pep3^b/BoyJ congenic mice (with Ly5.1 marker) obtained from Jackson Laboratories were used as donors. Bone marrow, thymus, harvest: Bone marrow cells were harvested from mice by crushing the tibias and femurs from the hind limbs in HBSS containing 2% FBS and […] HEPES buffer (HBSS+). Bone marrow cells, thymocytes and splenocytes were passed through 21 gauge needles to get single cell suspensions. The cellularity of bone marrow and thymus was measured by counting total live cells (using trypan blue) and total WBCs (using crystal violet in 3% acetic acid) on a hemocytometer. Measurement of Hoechst perfusion in vivo in mice: The Hoechst dye perfusion in mice was done according to methods previously described in the literature (Durand et al., 1990; Olive et al., 2000; Olive et al., 2002). Briefly, C57BL/6J mice were injected i.v. via the retro-orbital sinus under isoflurane anesthesia with two doses (0.8 mg/mouse) of Hoechst dye (Sigma) at 10 and 5 min before bone marrow harvesting, a period determined to be insufficient for active dye exclusion in vitro. Tibias and femurs were placed immediately on ice, crushed in a pre-cooled mortar and pestle, filtered and suspended in cold HBSS+. Thymus was harvested and thymocyte cell suspension made by passing the cells through 21 gauge needle. The dual emission wavelength of Hoechst fluorescence in bone marrow and thymus was assessed on a logarithmic scale using flow cytometry with exclusion of propidium iodide positive cells. Pimonidazole binding: The detection of hypoxic cells in bone marrow and thymus was done by pimonidazole binding using methods described by Olive et al. (Olive et al., 2000; Olive et al., 2002). Briefly, the mice were injected i.p. with pimonudazole hydrochloride (Chemicon International) at 120 mg/kg dose and the bone marrow as well as thymus were harvested 3 hrs post-injection. […] The fluorescent intensity for staining was measured using flow cytometry. […]

Here are results for two compounds from patent publication US20090136521A1, “Method for Selectively Depleting Hypoxic Cells” (Genetix Pharmaceuticals , Inc., priority 2005, published 2009).

Molecules are shown by their SMILES. Entries after “also recorded” stand apart in the source; their conditions may differ.

Take `O=c1[nH]cc(F)c(=O)[nH]1` [5-FU, 5-fluorouracil]: the “sensitivity of bone marrow HSCs capable of long-term engraftment in irradiated recipients” value in the experiment with HSCs is “resistant”. In addition, the “percent and overall marrow content of SP cells” value in the experiment on SP cells in bone marrow is given as “decreased; also recorded: dramatic decrease”. Besides, in the experiment on bone marrow, the “Hoechst gradient in bone marrow (red fluorescence intensity, lower 1% level)” value is reported as “considerably shortened”. For the same compound, in experiment [1] (5-FU single dose 150 mg/kg i.p., bone marrow at 2 days, FIG. 11), the “primitive late-forming CAFCs, bone marrow content” value was “remain normal”. For the same compound, the “early-forming CAFC subsets, bone marrow content” value in experiment [1] (5-FU single dose 150 mg/kg i.p., bone marrow at 2 days, FIG. 11, 150 mg/kg) is on record as “selectively depletes early-forming CAFCs; also recorded: marked depletion”. Moreover, the “number of functional HSCs” value in experiment [1] (after 5-FU) is recorded as “remains unaffected”.

For `Nc1n[n+]([O-])c2ccccc2[n+]1[O-]` [Tirapazamine, 1,2,4-benzotriazin-3-amine 1,4-dioxide], in experiment [1] (TPZ 30 mg/kg i.p. daily over 4 days, bone marrow harvested 24 hours after last treatment, FIG. 8), the “depletion of late- versus early-forming CAFC subsets (CAFC content per hind limb)” value is listed as “higher depletion of late-versus early-forming CAFC subsets”.
